Laboratory results taken from paper PMC6952399, “Structures of lipoprotein signal peptidase II from Staphylococcus aureus complexed with antibiotics globomycin and myxovirescin” (Nature Communications, 2020).
Values joined by “and” are separate entries in the source; they are usually repeats but may differ in a detail not shown here. Equal entries are not always repeated.

Biological target: T1, LspPae (lipoprotein signal peptidase II from Pseudomonas aeruginosa) (Pseudomonas aeruginosa, UniProt Q9HVM5)
T1 construct: made in house
T1 sequence (Q9HVM5 1-169): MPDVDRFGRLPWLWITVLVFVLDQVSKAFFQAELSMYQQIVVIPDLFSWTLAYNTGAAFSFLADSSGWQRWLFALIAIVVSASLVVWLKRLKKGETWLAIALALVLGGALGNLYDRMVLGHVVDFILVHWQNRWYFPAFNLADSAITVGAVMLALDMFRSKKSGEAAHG
Assay: FRET lipopeptide peptidase assay, LspPae
Format: biochemical
Conditions: for Fluorescence (RFU): FRET substrate + LspA + Myxovirescin; for Rate (RFU/min) / Normalised rate (Vi/V0): replicates 1 and 2; for Ki: estimated Ki’ (apparent inhibition constant)
Protocol: FRET activity assays. A FRET based assay was developed using a labelled lipopeptide substrate (Supplementary Methods, Supplementary Fig. 3b) to directly monitor the protease activity of LspA. The optimised LspMrs assay buffer included 100 mM Tris/HCl pH 7.8, 150 mM NaCl and 0.09%(w/v) DDM. The corresponding optimized buffer for LspPae included 100 mM MES/NaOH pH 5.6, 150 mM NaCl and 0.05%(w/v) LMNG. All assays were performed at 37 °C.
Reaction mixtures were prepared by vortexing (Clifton, cyclone CM-1) for 2 s and incubated at 37 °C, 800 rpm for 10 to 30 min. […] For dose-response assays, the final DMSO concentration in all reactions was 10%(v/v). Reaction mixtures were pipetted into wells of a 96- (Thermo Scientific) or a 384-well plate (4titude®) and incubated for 10 min at 37 °C in a SpectraMax M3 or a SpectraMax M5e plate reader (Molecular devices) prior to starting the assay. Assays were initiated by adding enzyme to a final concentration in the range 10–300 nM. Total reaction mixture volume was 50 μL. Reactions were monitored by fluorescence (Ex/Em, 320 nm/420 nm) for 30 to 60 min at 37 °C. Initial rates were calculated from the fluorescence intensity versus time progress curves (Supplementary Figs. 5 and 6). Occasionally, lag periods in the progress curves were observed (Supplementary Discussion). In such cases, initial rates were calculated after the lag period had passed (typically 1–5 min) and a steady rate had been established. Dose-response plots to determine IC50 values were generated using Prism® 5 software from GraphPad.
It was possible to convert units of fluorescence change into moles of substrate consumed or products formed because pure products of LspA action on Abz-LALAGC*SS-nY-NH2 had been synthesized and were available. These were used to create a standard curve of fluorescence versus moles of the two products in equimolar amounts and to calculate specific activity values. […]
One consequence of LspMrs having a relatively low specific activity is that, in order to get a reliable signal in activity assays, it was necessary to raise enzyme concentration. For kinetic measurements generally, it is desirable to use an enzyme concentration that is much lower than that of the substrate. In this situation, the usual assumption that added and free substrate concentrations are equal is valid. At high enzyme concentrations [E] therefore, and especially in the case of tight ligand binding where the inhibition constant, Ki, is small, a measured IC50 is limited to [E]/2 4–6. In such circumstances, a meaningful IC50 or Ki can only be obtained with considerable effort. With a few exceptions in the current study, this situation prevailed with both LspA orthologs where IC50 values came close to [E]/2 (Table 1 and Supplementary Table 3, Supplementary Fig. 6). […]
Inhibition of LspA from E. coli by globomycin has been described as non-competitive7. The evidence provided in support o f this conclusion included an insensitivity of IC 50 to substrate concentration and the fact that the Vmax but not the K m changed with globomycin concentration. It was of interest to determine if a similar mode of inhibition applied to LspPae and LspMrs. From published work7–9 and from FRET-based kinetics measurements reported here, we know that globomycin binds with high affinity (Supplementary Fig. 6). Tight binding means that a more in-depth analysis must be carried out in order to identify inhibition type. For such analysis, it is important to know active enzyme concentration accurately. Fortunately, it was possible to use the property of tight inhibitor binding to measure the concentration of active enzyme ( Supplementary Fig. 18a). In the case of LspPae, the estimated value and the concentration determined spectroscopically agreed remarkably well. Parenthetically we note that knowing active LspPae concentration accurately enabled a characterization of the myxovirescin sample used in this study. Myxovirescin also binds tightly to LspA (Supplementary Fig. 6). […]

[1] = Suppl. Fig. 18b, [Myxovirescin] 0.02 μM
[2] = Suppl. Fig. 18b, [Myxovirescin] 0.05 μM
[3] = Suppl. Fig. 18b, [Myxovirescin] 0.08 μM
[4] = Suppl. Fig. 18b, [Myxovirescin] 0.1 μM
[5] = Suppl. Fig. 18b, [Myxovirescin] 0.12 μM
[6] = Suppl. Fig. 18b, [Myxovirescin] 0.15 μM
[7] = Suppl. Fig. 18b, [Myxovirescin] 0.25 μM
[8] = Suppl. Fig. 18c, [Myxovirescin] nominal conc. 0.02 μM, corrected conc. 0.01454 μM
[9] = Suppl. Fig. 18c, [Myxovirescin] nominal conc. 0.05 μM, corrected conc. 0.03635 μM
[10] = Suppl. Fig. 18c, [Myxovirescin] nominal conc. 0.08 μM, corrected conc. 0.05816 μM
[11] = Suppl. Fig. 18c, [Myxovirescin] nominal conc. 0.1 μM, corrected conc. 0.0727 μM
[12] = Suppl. Fig. 18c, [Myxovirescin] nominal conc. 0.12 μM, corrected conc. 0.08724 μM
[13] = Suppl. Fig. 18c, [Myxovirescin] nominal conc. 0.15 μM, corrected conc. 0.10905 μM
[14] = Suppl. Fig. 18c, [Myxovirescin] nominal conc. 0.25 μM, corrected conc. 0.18175 μM

Structure (SMILES): CCCC1OC(=O)C(C)CC(C)CCCCC(=O)CCCC(CC)C=CC=C(COC)CCC(O)C(O)CC(O)CNC1=O (centres unmarked) [myxovirescin, myxovirescin A1]
- inhibitor on-rates (5-fold molar excess of antibiotic added 20 to 30 min after start of reaction): fast
- Fluorescence (RFU) (time 27 min): 524.203 RFU
- Fluorescence (RFU) (time 27.5 min): 527.644 RFU
- Fluorescence (RFU) (time 28 min): 525.326 RFU
- Fluorescence (RFU) (time 28.5 min): 532.036 RFU
- Fluorescence (RFU) (time 29 min): 530.446 RFU
- Fluorescence (RFU) (time 29.5 min): 520.770 RFU
- Fluorescence (RFU) (time 30 min): 525.266 RFU
- Fluorescence (RFU) (time 30.5 min): 523.492 RFU
- Fluorescence (RFU) (time 31 min): 522.555 RFU
- Fluorescence (RFU) (time 31.5 min): 520.169 RFU
- Fluorescence (RFU) (time 32 min): 526.741 RFU
- Fluorescence (RFU) (time 32.5 min): 523.010 RFU
- Fluorescence (RFU) (time 33 min): 519.722 RFU
- Fluorescence (RFU) (time 33.5 min): 528.885 RFU
- Fluorescence (RFU) (time 34 min): 517.843 RFU
- Fluorescence (RFU) (time 34.5 min): 518.721 RFU
- Fluorescence (RFU) (time 35 min): 516.893 RFU
- Fluorescence (RFU) (time 35.5 min): 521.148 RFU
- Fluorescence (RFU) (time 36 min): 519.865 RFU
- Fluorescence (RFU) (time 36.5 min): 522.746 RFU
- Fluorescence (RFU) (time 37 min): 519.603 RFU
- Fluorescence (RFU) (time 37.5 min): 522.440 RFU
- Fluorescence (RFU) (time 38 min): 518.255 RFU
- Fluorescence (RFU) (time 38.5 min): 516.274 RFU
- Fluorescence (RFU) (time 39 min): 516.879 RFU
- Fluorescence (RFU) (time 39.5 min): 521.400 RFU
- Fluorescence (RFU) (time 40 min): 509.974 RFU
- Fluorescence (RFU) (time 40.5 min): 516.718 RFU
- Fluorescence (RFU) (time 41 min): 513.520 RFU
- Fluorescence (RFU) (time 41.5 min): 514.018 RFU
- Fluorescence (RFU) (time 42 min): 520.839 RFU
- Fluorescence (RFU) (time 42.5 min): 520.491 RFU
- Fluorescence (RFU) (time 43 min): 514.424 RFU
- Fluorescence (RFU) (time 43.5 min): 516.271 RFU
- Fluorescence (RFU) (time 44 min): 509.335 RFU
- Fluorescence (RFU) (time 44.5 min): 511.506 RFU
- Fluorescence (RFU) (time 45 min): 512.926 RFU
- Fluorescence (RFU) (time 45.5 min): 515.088 RFU
- Fluorescence (RFU) (time 46 min): 509.497 RFU
- Fluorescence (RFU) (time 46.5 min): 509.153 RFU
- Fluorescence (RFU) (time 47 min): 505.807 RFU
- Fluorescence (RFU) (time 47.5 min): 508.613 RFU
- Fluorescence (RFU) (time 48 min): 508.252 RFU
- Fluorescence (RFU) (time 48.5 min): 514.611 RFU
- Fluorescence (RFU) (time 49 min): 508.852 RFU
- Fluorescence (RFU) (time 49.5 min): 511.333 RFU
- Fluorescence (RFU) (time 50 min): 507.505 RFU
- Fluorescence (RFU) (time 50.5 min): 508.404 RFU
- Fluorescence (RFU) (time 51 min): 511.832 RFU
- IC50 (IC50, 20 nM LspPae, substrate 5 µM): 9.76 nM and 12.3 nM
- IC50 (IC50, 20 nM LspPae, substrate 7.5 µM): 10.4 nM and 12.9 nM
- IC50 (IC50, 20 nM LspPae, substrate 10 µM): 11.1 nM and 14.4 nM
- IC50 (IC50, 20 nM LspPae, substrate 15 µM): 8.51 nM and 11.1 nM
- IC50 (IC50, 20 nM LspPae, substrate 20 µM): 9.14 nM and 13.9 nM
- IC50 (IC50, 20 nM LspPae, substrate 30 µM): 11.4 nM and 13.8 nM
- IC50 (IC50, FRET, 0.1 µM enzyme, 30 µM substrate, initial rates): 53 nM
- IC50 (IC50, LspPae concentration 10 nM): 4.1 nM and 5 nM
- IC50 (IC50, LspPae concentration 20 nM): 13.5 nM and 21.2 nM
- IC50 (IC50, LspPae concentration 40 nM): 20.3 nM and 26.1 nM
- IC50 (IC50, LspPae concentration 60 nM): 24.5 nM and 34.1 nM
- IC50 (IC50, LspPae concentration 80 nM): 41.7 nM and 50.6 nM
- IC50 (IC50, LspPae concentration 100 nM): 49.2 nM and 55.8 nM
- Rate (RFU/min) (LspPae block, log [myxo] (uM) -0.82): 0.2 RFU/min
- Rate (RFU/min) (LspPae block, log [myxo] (uM) -0.92): 0.1 RFU/min and 0.2 RFU/min
- Rate (RFU/min) (LspPae block, log [myxo] (uM) -1.00): 0.1 RFU/min and 0.2 RFU/min
- Rate (RFU/min) (LspPae block, log [myxo] (uM) -1.10): 1.3 RFU/min and 1.5 RFU/min
- Rate (RFU/min) (LspPae block, log [myxo] (uM) -1.30): 5.8 RFU/min and 6.2 RFU/min
- Rate (RFU/min) (LspPae block, log [myxo] (uM) -1.70): 10.2 RFU/min and 10.1 RFU/min
- Rate (RFU/min) (LspPae block, log [myxo] (uM) -2.00): 11.4 RFU/min and 11.5 RFU/min
- Normalised rate (Vi/V0) [1]: 0.8634 and 0.8943
- Rate (RFU/min) [1]: 45.52 RFU/min and 45.67 RFU/min
- Normalised rate (Vi/V0) [2]: 0.6591 and 0.6875
- Rate (RFU/min) [2]: 34.75 RFU/min and 35.11 RFU/min
- Normalised rate (Vi/V0) [3]: 0.4365 and 0.4511
- Rate (RFU/min) [3]: 23.01 RFU/min and 23.04 RFU/min
- Normalised rate (Vi/V0) [4]: 0.2771 and 0.2863
- Rate (RFU/min) [4]: 14.61 RFU/min and 14.62 RFU/min
- Normalised rate (Vi/V0) [5]: 0.09825 and 0.09947
- Rate (RFU/min) [5]: 5.18 RFU/min and 5.08 RFU/min
- Normalised rate (Vi/V0) [6]: 0.01309 and 0.02976
- Rate (RFU/min) [6]: 0.69 RFU/min
- Normalised rate (Vi/V0) [7]: 0.01574 and 0.02741
- Rate (RFU/min) [7]: 0.83 RFU/min and 1.4 RFU/min
- Normalised rate (Vi/V0) [8]: 0.8634 and 0.8943
- Rate (RFU/min) [8]: 45.52 RFU/min and 45.67 RFU/min
- Normalised rate (Vi/V0) [9]: 0.6591 and 0.6875
- Rate (RFU/min) [9]: 34.75 RFU/min and 35.11 RFU/min
- Normalised rate (Vi/V0) [10]: 0.4365 and 0.4511
- Rate (RFU/min) [10]: 23.01 RFU/min and 23.04 RFU/min
- Normalised rate (Vi/V0) [11]: 0.2771 and 0.2863
- Rate (RFU/min) [11]: 14.61 RFU/min and 14.62 RFU/min
- Normalised rate (Vi/V0) [12]: 0.09825 and 0.09947
- Rate (RFU/min) [12]: 5.18 RFU/min and 5.08 RFU/min
- Normalised rate (Vi/V0) [13]: 0.01309 and 0.02976
- Rate (RFU/min) [13]: 0.69 RFU/min
- Normalised rate (Vi/V0) [14]: 0.01574 and 0.02741
- Rate (RFU/min) [14]: 0.83 RFU/min and 1.4 RFU/min
- IC50 (average IC50, 20 nM LspPae, substrate 2.5 or 5 to 30 µM): ~10 nM
- Ki (Morrison analysis, 30 µM substrate, 0.1 µM LspPae): 0.0476 ± 0.128 nM
- Ki (from dependence of IC50 on enzyme concentration, IC50 = Ki’ + [E]/2): 2.69 ± 2.8 nM
